Assay results from PubChem BioAssay (NCI).
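How tested: cells in 96-well plates exposed to compound for 48 hours at five concentrations. Definition used: TGI = concentration required for complete inhibition of growth.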

Assays:
Experiment in all cases: inhibition of tumour cell growth, NCI panel, 48 h
[1] = tested on: K-562 leukemia
[2] = tested on: NCI-H23 lung
[3] = tested on: OVCAR-4 ovarian
[4] = tested on: HOP-92 NSCLC
[5] = tested on: CAKI-1 renal
[6] = tested on: TK-10 renal
[7] = tested on: LXFL 529 NSCLC
[8] = tested on: UACC-62 melanoma
[9] = tested on: M19-MEL melanoma
[10] = tested on: UACC-257 melanoma
[11] = tested on: OVCAR-3 ovarian
[12] = tested on: SK-MEL-28 melanoma
[13] = tested on: HCT-116 colon
[14] = tested on: SF-539 CNS
[15] = tested on: NCI-H460 lung
[16] = tested on: U251 CNS
[17] = tested on: MALME-3M melanoma
[18] = tested on: SNB-78 CNS
[19] = tested on: SK-MEL-2 melanoma
[20] = tested on: NCI-H522 lung
[21] = tested on: A549 NSCLC
[22] = tested on: CCRF-CEM leukemia
[23] = tested on: SN12C renal
[24] = tested on: COLO 205 colon
[25] = tested on: IGROV1 ovarian
[26] = tested on: HOP-62 NSCLC
[27] = tested on: RXF 393 renal
[28] = tested on: HCT-15 colon
[29] = tested on: HOP-18 NSCLC
[30] = tested on: SNB-19 CNS
[31] = tested on: SK-OV-3 ovarian
[32] = tested on: SR leukemia
[33] = tested on: HL-60(TB) leukemia
[34] = tested on: SF-295 CNS
[35] = tested on: RPMI-8226 leukemia
[36] = tested on: EKVX NSCLC
[37] = tested on: DMS 114 small cell lung
[38] = tested on: SW-620 colon
[39] = tested on: OVCAR-8 ovarian
[40] = tested on: XF 498 CNS
[41] = tested on: M14 melanoma
[42] = tested on: DLD-1 colon
[43] = tested on: LOX IMVI melanoma
[44] = tested on: KM20L2 colon
[45] = tested on: SK-MEL-5 melanoma
[46] = tested on: DMS 273 small cell lung
[47] = tested on: 786-0 renal
[48] = tested on: OVCAR-5 ovarian
[49] = tested on: ACHN renal
[50] = tested on: MOLT-4 leukemia
[51] = tested on: KM12 colon
[52] = tested on: HCC-2998 colon
[53] = tested on: SF-268 CNS
[54] = tested on: NCI-H226 lung
[55] = tested on: UO-31 renal
[56] = tested on: A498 renal
[57] = tested on: HT29 colon
[58] = tested on: SNB-75 CNS

## CCOc1ccc(N=Nc2ccc3oc(=O)c(/C(C)=N/NC(=O)CC(=O)Nc4cccc(OC)c4)cc3c2)cc1
[1]
  TGI: 86.5 µM
[2]
  TGI: 33.4 µM
[3]
  TGI: 52.6 µM
[4]
  TGI: 47.4 µM
[5]
  TGI: > 45.4 µM
[6]
  TGI: > 100 µM
[7]
  TGI: 33.5 µM
[8]
  TGI: 39.7 µM
[9]
  TGI: > 88.1 µM
[10]
  TGI: 22 µM
[11]
  TGI: 37 µM
[12]
  TGI: 92 µM
[13]
  TGI: 33.7 µM
[14]
  TGI: 51 µM
[15]
  TGI: 46.3 µM
[16]
  TGI: 17.1 µM
[17]
  TGI: 37.5 µM
[18]
  TGI: > 95.9 µM
[19]
  TGI: 45.7 µM
[20]
  TGI: 72.4 µM
[21]
  TGI: > 74.6 µM
[22]
  TGI: 21.6 µM
[23]
  TGI: 30.8 µM
[24]
  TGI: 78.3 µM
[25]
  TGI: 65.4 µM
[26]
  TGI: 31.7 µM
[27]
  TGI: 38.1 µM
[28]
  TGI: > 86.3 µM
[29]
  TGI: 74.4 µM
[30]
  TGI: > 79 µM
[31]
  TGI: 82.3 µM
[32]
  TGI: 10.1 µM
[33]
  TGI: 16.1 µM
[34]
  TGI: 53.8 µM
[35]
  TGI: 53.7 µM
[36]
  TGI: 55.5 µM
[37]
  TGI: 44.5 µM
[38]
  TGI: 85.1 µM
[39]
  TGI: > 61.4 µM
[40]
  TGI: 42 µM
[41]
  TGI: 77.3 µM
[42]
  TGI: 45.5 µM
[43]
  TGI: 60.5 µM
[44]
  TGI: > 31.6 µM
[45]
  TGI: 58.4 µM
[46]
  TGI: > 71.2 µM
[47]
  TGI: 22.3 µM
[48]
  TGI: > 70.3 µM
[49]
  TGI: 51.6 µM
[50]
  TGI: > 56 µM
[51]
  TGI: > 56.9 µM
[52]
  TGI: 30.2 µM
[53]
  TGI: 52.5 µM
[54]
  TGI: > 73 µM
[55]
  TGI: 29.5 µM

## O/N=C1/C(=C/c2ccc(Cl)c(Cl)c2)CCCC1C(NO)c1ccc(Cl)c(Cl)c1 (configuration not stated)
[1]
  TGI: 63.6 µM
[56]
  TGI: 27.4 µM
[2]
  TGI: 35.6 µM
[3]
  TGI: 26.7 µM
[5]
  TGI: 34 µM
[6]
  TGI: 36.3 µM
[7]
  TGI: 29.5 µM
[8]
  TGI: 35 µM
[9]
  TGI: 33.8 µM
[10]
  TGI: 34.1 µM
[11]
  TGI: 27.8 µM
[12]
  TGI: 34.5 µM
[13]
  TGI: 30.3 µM
[14]
  TGI: 33.2 µM
[15]
  TGI: 40 µM
[57]
  TGI: 32.1 µM
[16]
  TGI: 34.2 µM
[17]
  TGI: 44.4 µM
[18]
  TGI: 37.7 µM
[19]
  TGI: 38.5 µM
[20]
  TGI: 25 µM
[21]
  TGI: 41.3 µM
[22]
  TGI: 46.1 µM
[58]
  TGI: 31.1 µM
[23]
  TGI: 35.2 µM
[24]
  TGI: 35.7 µM
[25]
  TGI: 38.5 µM
[26]
  TGI: 48.2 µM
[27]
  TGI: 43.3 µM
[28]
  TGI: 37.2 µM
[29]
  TGI: 30.5 µM
[30]
  TGI: 33.1 µM
[31]
  TGI: 39.1 µM
[33]
  TGI: 39 µM
[35]
  TGI: 53.6 µM
[36]
  TGI: 42.9 µM
[37]
  TGI: 37.3 µM
[38]
  TGI: 36 µM
[39]
  TGI: 36.7 µM
[40]
  TGI: 33.9 µM
[41]
  TGI: 34.6 µM
[42]
  TGI: 37 µM
[44]
  TGI: 35.3 µM
[45]
  TGI: 35.3 µM
[46]
  TGI: 36 µM
[47]
  TGI: 42.4 µM
[49]
  TGI: 33 µM
[50]
  TGI: 33.8 µM
[51]
  TGI: 31.9 µM
[52]
  TGI: 36.8 µM
[53]
  TGI: 45.7 µM
[55]
  TGI: 35.7 µM
